Among the test systems are UACC-257 melanoma; NCI-H460 lung; U251 CNS; SF-268 CNS; UACC-62 melanoma; SK-OV-3 ovarian; MALME-3M melanoma; DU-145 prostate.
What all share (test): growth of human tumour cells (NCI), 48 h

Values joined by “and” are separate entries in the source; they are usually repeats but may differ in a detail not shown here. Equal values may be shown once.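 These data come from cells grown in 96-well plates and exposed to compound for 48 hours at five concentrations. The concentration for 50% growth inhibition is given as GI50. The concentration for full growth arrest is given as TGI.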

For the compound `COC(=O)Nc1nc2ccc(C(=O)c3cccc(I)c3)cc2[nH]1`, the GI50 in the experiment with UACC-257 melanoma is 15.1 µM; with NCI-H460 lung, 0.0407 µM; in the experiment with U251 CNS it was 0.0559 µM; with SF-268 CNS, 0.18 µM; with UACC-62 melanoma it was 0.234 µM; in the experiment with SK-OV-3 ovarian, 0.257 µM. Further, the values for the GI50 in the experiment on MALME-3M melanoma and in the experiment with DU-145 prostate were 0.274 µM and 0.0861 µM, respectively. Moreover, the TGI in the experiment on UACC-257 melanoma was > 100 µM; in the experiment with NCI-H460 lung, 4.33 µM; with U251 CNS it was 12.3 µM; with SF-268 CNS, 17.5 µM; with UACC-62 melanoma, 18.1 µM; in the experiment on SK-OV-3 ovarian it was 28.6 µM. The TGI in the experiment on MALME-3M melanoma is 24.1 µM; with DU-145 prostate, 1.76 µM.
As for `C[C@@H]1CC[C@@H]2[C@@H]1[C@H](OC(=O)/C=C/C1CCCCC1)[C@]1(C3CCCCC3)C[C@@H](OC(=O)CO)[C@@]2(C)O1`, the GI50 is 15.8 µM in the experiment on UACC-257 melanoma; 14.6 µM with NCI-H460 lung; 13.7 µM in the experiment with U251 CNS; 0.859 µM in the experiment with SF-268 CNS; 13.5 µM in the experiment with UACC-62 melanoma; 15 µM in the experiment on SK-OV-3 ovarian. Further, the GI50 is 14.5 µM in the experiment on MALME-3M melanoma and 14.3 µM in the experiment with DU-145 prostate. Moreover, the TGI in the experiment on UACC-257 melanoma came to 29.6 µM; in the experiment on NCI-H460 lung, 30 µM; in the experiment on U251 CNS it was 26.1 µM; in the experiment on SF-268 CNS, 19.7 µM; in the experiment on UACC-62 melanoma, 26.8 µM; with SK-OV-3 ovarian it was 27.7 µM. In addition, the TGI is 28.9 µM in the experiment on MALME-3M melanoma and 27.3 µM with DU-145 prostate.
Regarding `Clc1ccc2c(NC3CCC(N4CCCCC4)CC3)ccnc2c1` (centres undefined), the TGI with UACC-257 melanoma is 29.4 µM; with NCI-H460 lung, 33.2 µM; in the experiment with U251 CNS, 57.1 µM; in the experiment with SF-268 CNS it was > 100 µM; in the experiment on UACC-62 melanoma, 32.2 µM; in the experiment on SK-OV-3 ovarian, > 100 µM. Further, the TGI in the experiment with MALME-3M melanoma is 36.1 µM; in the experiment with DU-145 prostate, > 100 µM.
As to `c1ccc2c(N=NSc3ncnc4nc[nH]c34)c3ccccc3nc2c1`, the GI50 is 0.662 µM in the experiment on UACC-257 melanoma; 0.877 µM in the experiment on NCI-H460 lung; 1.12 µM in the experiment with U251 CNS; 1.8 µM in the experiment on SF-268 CNS; 1.1 µM with UACC-62 melanoma; 1.38 µM in the experiment with SK-OV-3 ovarian. For the same compound, the GI50 in the experiment with MALME-3M melanoma was 2.01 µM; with DU-145 prostate, 1.4 µM. Further, the TGI in the experiment with UACC-257 melanoma is 6.56 µM; in the experiment with NCI-H460 lung it was 5.67 µM; with U251 CNS it was 10.9 µM; in the experiment with SF-268 CNS, 6.53 µM; in the experiment with UACC-62 melanoma, 2.63 µM; in the experiment on SK-OV-3 ovarian, 14.2 µM. The TGI in the experiment with MALME-3M melanoma is 4.11 µM; in the experiment with DU-145 prostate, 6.63 µM.
As for `CC(C)(C)NCC(O)c1ccccc1Cl` (centres undefined), the GI50 in the experiment with UACC-257 melanoma, with NCI-H460 lung, in the experiment on U251 CNS, in the experiment on SF-268 CNS, in the experiment on UACC-62 melanoma and with SK-OV-3 ovarian was > 100 µM each time. Further, the GI50 in the experiment with MALME-3M melanoma and in the experiment on DU-145 prostate was > 100 µM each time. The TGI with UACC-257 melanoma, with NCI-H460 lung, with U251 CNS, with SF-268 CNS, with UACC-62 melanoma and in the experiment on SK-OV-3 ovarian was > 100 µM in each case. For the same compound, the TGI with MALME-3M melanoma and in the experiment on DU-145 prostate was > 100 µM throughout.
For `CC(C)[C@@H](C(=O)O[C@@H]1/C=C/C(=O)O[C@@H](C)CCC/C=C/[C@@H]2C[C@H](O)C[C@H]21)N(C)C`, the GI50 in the experiment with UACC-257 melanoma is 20.8 µM; in the experiment with NCI-H460 lung, 24.7 µM; in the experiment on U251 CNS it was 30.2 µM; with SF-268 CNS, 7.33 µM; in the experiment with UACC-62 melanoma, 21.7 µM; in the experiment on SK-OV-3 ovarian it was 23.8 µM. Moreover, the figures for the GI50 with MALME-3M melanoma and in the experiment on DU-145 prostate were 3.89 µM and 29.4 µM, respectively. For the same compound, the TGI in the experiment on UACC-257 melanoma was > 81.9 µM; in the experiment on NCI-H460 lung, > 76.3 µM; with U251 CNS, > 100 µM; in the experiment with SF-268 CNS, > 45 µM; in the experiment with UACC-62 melanoma, > 72.1 µM; in the experiment with SK-OV-3 ovarian, > 96 µM. In addition, the TGI in the experiment with MALME-3M melanoma is 22 µM; with DU-145 prostate it was > 100 µM.
Consider `C[C@]12CCC(=O)C=C1C[C@@H](O)[C@@H]1[C@@H]2CC[C@@]2(C)[C@H]1CC[C@]2(C)O`, for which the TGI with UACC-257 melanoma, in the experiment with NCI-H460 lung, in the experiment on U251 CNS, in the experiment with SF-268 CNS, with UACC-62 melanoma and with SK-OV-3 ovarian was > 100 µM in each case. Besides, the TGI in the experiment on MALME-3M melanoma and in the experiment on DU-145 prostate was > 100 µM each time.
As for `CCC[CH2][Sn]1([CH2]CCC)[O]C(=O)c2cccc([N+](=O)[O-])c2C(=O)[O]1`, the GI50 in the experiment on UACC-257 melanoma is 0.292 µM; in the experiment on NCI-H460 lung, 1.66 µM; in the experiment on U251 CNS, 0.633 µM; with SF-268 CNS, 0.431 µM; in the experiment on UACC-62 melanoma it was 0.381 µM; in the experiment on SK-OV-3 ovarian it was 1.69 µM. Further, the GI50 with MALME-3M melanoma was 0.189 µM; in the experiment on DU-145 prostate, 0.795 µM. The TGI was determined as 1.19 µM in the experiment with UACC-257 melanoma; 3.57 µM in the experiment with NCI-H460 lung; 1.94 µM with U251 CNS; 1.65 µM with SF-268 CNS; 1.5 µM in the experiment on UACC-62 melanoma; 3.07 µM with SK-OV-3 ovarian. Further, the TGI in the experiment on MALME-3M melanoma came out at 0.623 µM; in the experiment with DU-145 prostate it was 2.05 µM.
Regarding `Cc1c(C(=O)Nc2ccc(N3C[C@@H](C)O[C@@H](C)C3)nc2)cccc1-c1ccc(OC(F)(F)F)cc1`, the GI50 in the experiment on UACC-257 melanoma was 10.7 µM and 12.6 µM; in the experiment on NCI-H460 lung, 8.67 µM and 6.79 µM; with U251 CNS, 8.6 µM and 12 µM; with SF-268 CNS, 7.22 µM and 5.25 µM; with UACC-62 melanoma, 9.08 µM and 12.7 µM; in the experiment with SK-OV-3 ovarian, 11.4 µM and 15.2 µM. The GI50 with MALME-3M melanoma is 12.1 µM and 13.3 µM; in the experiment on DU-145 prostate, 8.25 µM and 4.84 µM. For the same compound, the TGI was 38 µM and 74.7 µM in the experiment with UACC-257 melanoma; > 68.6 µM and 83.7 µM in the experiment on NCI-H460 lung; 28 µM and 38.4 µM in the experiment with U251 CNS; 28.9 µM and 25.9 µM in the experiment with SF-268 CNS; 27.6 µM and 35.7 µM in the experiment on UACC-62 melanoma; 30 µM and 34.5 µM with SK-OV-3 ovarian. The TGI in the experiment on MALME-3M melanoma is 46.2 µM and 46 µM; in the experiment on DU-145 prostate, 25.1 µM and 20.9 µM.
With `Nc1nc(N)c2c(ccc3c2ccn3Cc2cccc([N+](=O)[O-])c2)n1`, the GI50 is 1.07 µM with UACC-257 melanoma; 0.00501 µM with NCI-H460 lung; 0.018 µM in the experiment on U251 CNS; 0.0535 µM in the experiment with SF-268 CNS; 0.0306 µM in the experiment on UACC-62 melanoma; 0.0888 µM and 0.54 µM in the experiment on SK-OV-3 ovarian. Besides, the GI50 was 1.21 µM in the experiment with MALME-3M melanoma; 0.151 µM and 0.086 µM in the experiment with DU-145 prostate. The TGI with UACC-257 melanoma was 2.47 µM; in the experiment with NCI-H460 lung, 1.89 µM and 1.35 µM; in the experiment on U251 CNS, 1.72 µM; in the experiment with SF-268 CNS, 1.99 µM; with UACC-62 melanoma, 1.39 µM; in the experiment with SK-OV-3 ovarian, 2.01 µM and 2.11 µM. Besides, the TGI with MALME-3M melanoma was 2.81 µM; in the experiment with DU-145 prostate, 2.08 µM and 2 µM.
